Assay results as given in ChEMBL document CHEMBL4732026, “Benzimidazole-1,2,3-triazole hybrid molecules: synthesis and study of their interaction with G-quadruplex DNA” (RSC Med Chem, 2021).
Calls of active or inactive are those of the source. The calls are words filed in the database; no cut-off is given here.

Assays:
B16-F10 = experiment: Cytotoxicity against mouse B16-F10 cells assessed as reduction in cell viability measured after 72 hrs by MTT assay; type: functional, cell-based; details: B16-F10, 72 h
CHO-K1 [1] = experiment: Cytotoxicity against […] cells assessed as reduction in cell viability measured after 72 hrs by MTT assay; type: cell-based; details: Cricetulus griseus, CHO-K1, 72 h
Quadruplex DNA [2] = experiment: Binding affinity to c-Myc G-quadruplex DNA (unknown origin) assessed as dissociation constant incubated for 5 mins by UV- vis spectrophotometric analysis; type: nucleic-acid assay
Quadruplex DNA [3] = experiment: Binding affinity to Tel Q G-quadruplex DNA (unknown origin) assessed as dissociation constant incubated for 5 mins by UV- vis spectrophotometric analysis; type: nucleic-acid assay
PC-3 [4] = experiment: Induction of cell cycle arrest in human PC3 cells assessed as accumulation at Sub G1 phase at 50 uM after 48 hrs by propidium iodide staining based flow cytometry (reference value: 0.1%); type: functional
PC-3 [5] = experiment: Induction of cell cycle arrest in human PC3 cells assessed as accumulation at G1 phase at 50 uM after 48 hrs by propidium iodide staining based flow cytometry (reference value: 5%); type: functional
PC-3 [6] = experiment: Induction of cell cycle arrest in human PC3 cells assessed as accumulation at S phase at 50 uM after 48 hrs by propidium iodide staining based flow cytometry (reference value: 1.8%); type: functional
PC-3 [7] = experiment: Induction of cell cycle arrest in human PC3 cells assessed as accumulation at G2/M phase at 50 uM after 48 hrs by propidium iodide staining based flow cytometry (reference value: 1.4%); type: functional
PC-3 [8] = experiment: Induction of cell cycle arrest in human PC3 cells assessed as accumulation at S phase at 55 uM after 48 hrs by propidium iodide staining based flow cytometry (reference value: 1.8%); type: functional
PC-3 [9] = experiment: Induction of cell cycle arrest in human PC3 cells assessed as accumulation at G2/M phase at 55 uM after 48 hrs by propidium iodide staining based flow cytometry (reference value: 1.4%); type: functional
PC-3 [10] = experiment: Induction of apoptosis in human PC-3 cells assessed as late apoptic cells at 50 uM after 48 hrs by Annexin V based flow cytometric analysis (reference value: 9.24%); type: functional
PC-3 [11] = experiment: Induction of apoptosis in human PC-3 cells assessed as early apoptic cells at 50 uM after 48 hrs by Annexin V based flow cytometric analysis (reference value: 0.40%); type: functional
PC-3 [12] = experiment: Induction of apoptosis in human PC-3 cells assessed as necrotic cells at 55 uM after 48 hrs by Annexin V based flow cytometric analysis (reference value: 0.79%); type: functional
PC-3 [13] = experiment: Induction of apoptosis in human PC-3 cells assessed as late apoptic cells at 55 uM after 48 hrs by Annexin V based flow cytometric analysis (reference value: 9.24%); type: functional
PC-3 [14] = experiment: Induction of apoptosis in human PC-3 cells assessed as early apoptic cells at 55 uM after 48 hrs by Annexin V based flow cytometric analysis (reference value: 0.40%); type: functional
PC-3 [15] = experiment: Induction of apoptosis in human PC-3 cells assessed as apoptotic cells at 55 uM incubated for 48 hrs by AnnexinV based flow cytometric analysis (reference value: 10.43%); type: functional
[16] = Induction of apoptosis in CHO-K1 cells assessed as viable cells at 60 uM after 48 hrs by Annexin V based flow cytometric analysis (reference value: 93.71%); type: cell-based, Cricetulus griseus; details: chinese hamster, read-out: Activity
CHO-K1 [17] = experiment: Induction of apoptosis in CHO-K1 cells assessed as necrotic cells at 60 uM after 48 hrs by Annexin V based flow cytometric analysis (reference value: 0.70%); type: cell-based, Cricetulus griseus; details: chinese hamster, cho-k1, 48 h
CHO-K1 [18] = experiment: Induction of apoptosis in CHO-K1 cells assessed as early apoptic cells at 60 uM after 48 hrs by Annexin V based flow cytometric analysis (reference value: 4.58%); type: cell-based, Cricetulus griseus; details: chinese hamster, cho-k1, 48 h
CHO-K1 [19] = experiment: Induction of apoptosis in CHO-K1 cells assessed as apoptic cells at 60 uM after 48 hrs by Annexin V based flow cytometric analysis (reference value: 6.29%); type: cell-based, Cricetulus griseus; details: chinese hamster, cho-k1, 48 h
[20] = Induction of apoptosis in CHO-K1 cells assessed as viable cells at 65 uM after 48 hrs by Annexin V based flow cytometric analysis (reference value: 93.71%); type: cell-based, Cricetulus griseus; details: chinese hamster, read-out: Activity
CHO-K1 [21] = experiment: Induction of apoptosis in CHO-K1 cells assessed as necrotic cells at 65 uM after 48 hrs by Annexin V based flow cytometric analysis (reference value: 0.70%); type: cell-based, Cricetulus griseus; details: chinese hamster, cho-k1, 48 h
CHO-K1 [22] = experiment: Induction of apoptosis in CHO-K1 cells assessed as early apoptic cells at 65 uM after 48 hrs by Annexin V based flow cytometric analysis (reference value: 4.58%); type: cell-based, Cricetulus griseus; details: chinese hamster, cho-k1, 48 h
CHO-K1 [23] = experiment: Induction of apoptosis in CHO-K1 cells assessed as late apoptic cells at 65 uM after 48 hrs by Annexin V based flow cytometric analysis (reference value: 1.01%); type: cell-based, Cricetulus griseus; details: chinese hamster, cho-k1, 48 h
Quadruplex DNA [24] = experiment: Binding affinity to Tel Q G-quadruplex DNA (unknown origin) assessed as hypsochromic shift at 8.5 uM incubated for 5 mins by UV- vis spectrophotometric analysis; type: nucleic-acid assay
Quadruplex DNA [25] = experiment: Binding affinity to c-Myc G-quadruplex DNA (unknown origin) assessed as hypsochromic shift at 8.5 uM incubated for 5 mins by UV- vis spectrophotometric analysis; type: nucleic-acid assay
Quadruplex DNA [26] = experiment: Binding affinity to c-Myc G-quadruplex DNA (unknown origin) assessed as hyperchromicity at 8.5 uM incubated for 5 mins by UV- vis spectrophotometric analysis; type: nucleic-acid assay
dsDNA [27] = experiment: Binding affinity to double strand DNA (unknown origin) assessed as hyperchromicity at 8.5 uM incubated for 5 mins by UV- vis spectrophotometric analysis; type: nucleic-acid assay
Quadruplex DNA [28] = experiment: Stabilization of c-Myc G-quadruplex DNA (unknown origin) assessed as change in melting temperature at 8.5 uM incubated for 5 mins by UV-visible thermal denaturation study; type: nucleic-acid assay
dsDNA [29] = experiment: Stabilization of dsDNA (unknown origin) assessed as change in melting temperature at 8.5 uM incubated for 5 mins by UV-visible thermal denaturation study; type: nucleic-acid assay
Quadruplex DNA [30] = experiment: Stabilization of Tel Q G-quadruplex DNA (unknown origin) assessed as increase in life time of DNA and compound complex at 8.5 uM incubated for 5 mins by fluorescence lifetime study; type: nucleic-acid assay
dsDNA [31] = experiment: Stabilization of double strand DNA (unknown origin) assessed as increase in life time of DNA and compound complex at 8.5 uM incubated for 5 mins by fluorescence lifetime study; type: nucleic-acid assay
Quadruplex DNA [32] = experiment: Binding affinity to c-Myc G-quadruplex DNA (unknown origin) assessed as increase in intensity of positive and negative peaks at 10 to 40 uM by circular dichroism spectra; type: nucleic-acid assay; details: dose 10-40 µM
Quadruplex DNA [33] = experiment: Binding affinity to Tel Q G-quadruplex DNA (unknown origin) assessed as increase in intensity of positive and negative peaks at 10 to 40 uM by circular dichroism spectra; type: nucleic-acid assay; details: dose 10-40 µM
dsDNA [34] = experiment: Binding affinity to double strand DNA (unknown origin) assessed as increase in intensity of positive and negative peaks at 10 to 40 uM by circular dichroism spectra; type: nucleic-acid assay; details: dose 10-40 µM
Quadruplex DNA [35] = experiment: Binding affinity to Tel Q G-quadruplex DNA (unknown origin) assessed as increase in viscosity at 15 uM by EtBr/Hoechst 33342 method; type: nucleic-acid assay
dsDNA [36] = experiment: Binding affinity to double strand DNA (unknown origin) assessed as increase in viscosity at 15 uM by EtBr/Hoechst 33342 method; type: nucleic-acid assay

In the case of `O=C(Cn1cc(CSc2nc3cc(OC(F)F)ccc3[nH]2)nn1)NC1CCCCC1`, the IC50 (B16-F10) is reported as 84.7 µM, the IC50 (CHO-K1 [1]) is reported as 62.9 µM and the Kd (Quadruplex DNA [2]) is reported as 113 µM. For the same molecule, the Kd (Quadruplex DNA [3]) was 72.3 µM, the Activity (PC-3 [4]) was 0.1% and the Activity (PC-3 [5]) was 8.9%. For the same molecule, the Activity (PC-3 [6]) was 5.3%, the Activity (PC-3 [7]) was 9.6% and the Activity (PC-3 [8]) was 7.9%. For the same molecule, the Activity (PC-3 [9]) was 11.2%, the Activity (PC-3 [10]) was 9.39% and the Activity (PC-3 [11]) was 0.76%. For the same molecule, the Activity (PC-3 [12]) was 2.64%, the Activity (PC-3 [13]) was 13.75% and the Activity (PC-3 [14]) was 2.2%. For the same molecule, the Activity (PC-3 [15]) was 18.62%, the viability at 48 h, 60 µM [16] was 86% and the Activity (CHO-K1 [17]) was 1.97%. The Activity (CHO-K1 [18]) was 10.39%, the Activity (CHO-K1 [19]) was 13.98% and the viability at 48 h, 65 µM [20] was 84.4%. The Activity (CHO-K1 [21]) was 1.72%, the Activity (CHO-K1 [22]) was 11.75% and the Activity (CHO-K1 [23]) was 2.16%. The Activity (Quadruplex DNA [24]) was 2.5 nm, the Activity (Quadruplex DNA [25]) was 5 nm and the Activity (Quadruplex DNA [26]) was 27.3%. For the same molecule, the Activity (dsDNA [27]) was 13.1%, the ΔTm (Quadruplex DNA [28]) was 5 °C and the ΔTm (dsDNA [29]) was 0 °C. The Activity (Quadruplex DNA [30]) was “Active”, the Activity (dsDNA [31]) was “Active” and the Activity (Quadruplex DNA [32]) was “Active”. For the same molecule, the Activity (Quadruplex DNA [33]) was “Active”, the Activity (dsDNA [34]) was “inactive” and the Activity (Quadruplex DNA [35]) was “Active”. The Activity (dsDNA [36]) was “inactive”.
